Source: patent US9376382B2, “N-substituted isopropyldimethyl azulene sulfonamide derivatives, and preparation method and use thereof” (Sichuan Guokang Pharmaceutical Co., Ltd., priority 2011, dated 2016)

Columns and labels:
[1] = Intense light irradiation test (4500LX ± 500LX), stability study; type: physicochemical; conditions: for Appearance Day 0: Day 0, cell wraps; for Appearance Day 0 / Appearance Day 5 / Appearance Day 10: first line given; for Appearance Day 5: Day 5, cell wraps; for Appearance Day 10: Day 10, cell wraps
Description: (§1) The test samples were open-stored in “adjustable light boxes” under the conditions of illumination of 4500LX±500LX for 10 days, and taken and detected on Day 5 and Day 10 with regards to dry items. • The characteristics, especially colour change was observed. • Melting points were measured by an automatic melting point apparatus. • By self-reflection, TLC is used to observe whether the spot numbers were increased after 5 days and 10 days.

[2] = High humidity test (25° C., relative humidity 90% ± 5%), stability study; type: physicochemical; conditions: RH 90% ± 5%; for Appearance Day 0: Day 0, cell wraps; for Appearance Day 0 / Appearance Day 5 / Appearance Day 10: first line given; for Appearance Day 5: Day 5, cell wraps; for Appearance Day 10: Day 10, cell wraps;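 as to all read-outs here: samples kept uncovered in sealed humidity desiccators, appearance judged mainly by colour change, melting point on an automatic apparatus, TLC checked for extra spots versus start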
Description: (§2) The test samples were open-stored in closed constant humidity desiccators under the condition of 25° C. and relative humidity of 90%+5% for 10 days, and taken and detected on Day 5 and Day 10. Meanwhile, each sample was accurately weighed before and after test.
The characteristics, especially colour change was observed.
Melting points were measured by an automatic melting point apparatus.
By self-reflection, TLC is used to observe whether the spot numbers were increased after 5 days and 10 days.

[3] = Stability studies (light, humidity, heat), overall comparison; conditions: for light, humidity and heat stability in words: summary of high-temperature, high humidity and intense light tests
Description: (§3) The test samples were open-stored in culture dishes at 60° C. for 10 days, and taken and detected on Day 5 and Day 10. • The characteristics, especially colour change were observed. • Melting points were measured by automatic melting point apparatus. • By self-reflection, TLC is used to observe whether the spot numbers were increased after 5 days and 10 days.
as §2, §1

[4] = High-temperature test (60° C.), stability study; type: physicochemical; conditions: open-stored; for Appearance Day 5: Day 5, cell wraps; for Appearance Day 5 / Appearance Day 10: first line given; for Appearance Day 10: Day 10, cell wraps;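 as to all read-outs here: samples kept uncovered in dishes at 60 °C for up to 10 days and examined on Day 5 and Day 10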
Description: as §3

[5] = test system: ethanol-induced gastric ulcer; experiment: Anhydrous ethanol-induced gastric ulcer in mice; type: in vivo, Kunming mice; design: key to Gastri ulcer score (X ± SD) / Ulcer score (X ± SD) / Gastric ulcer score (X ± SD): summed pathology score: congestion 1, hemorrhage/erosion 1, linear erosion 3; conditions: for Inhibition rate (%): inhibition rate of ulcer vs model group; for Gastric ulcer score (X ± SD) / Gastri ulcer score (X ± SD) / Ulcer score (X ± SD): mice, intragastric once a day for five days; for anti-gastric ulcer effect in words: ethanol-induced gastric ulcer in mice, compared to the model group; for Gastri ulcer score (X ± SD): dose equimolar to azulene sulfonate sodium 3.0 mg/kg (Omeprazole 13.4 mg/kg), model group 13.00 ± 1.77; for Ulcer score (X ± SD): equimolar doses, model group 20.33 ± 12.23
Description: Kunming mice, half male and half female, weighing 18-22 g, provided by the West China Animal Center
(1) Azulene sodium sulphonate was added with 0.5% CMC to prepare a suspension with concentration of 0.15 mg/ml.
(2) 20 mg of Omeprazole was added with 0.5% CMC to prepare a suspension with concentration of 0.67 mg/ml.
Kunming mice were randomly grouped according the body weight (one model control group or negative control group, one Omeprazole control group or positive control group, one Azulene sodium sulphonate control group, twelve test drug groups), eight mice for each group, half male and half female.
Administration: Model control group was administrated intragastrically with 0.5% CMC solution at a dose of 0.4 ml/20 g; Omeprazole control group was administrated intragastrically with Omeprazole at a dose of 0.4 ml/20 g, Azulene sodium sulphonate control group and each test drug groups were administrated intragastrically with their respective drug at a dose of 0.4 ml/20 g. The mice in each group were administrated once a day for successive five days. 0.5 hour after final administration, the mice in each group were administrated intragastrically with 0.5 ml of anhydrous ethanol, one hour later the mice were executed and dissected, and their stomaches were taken, washed and scored according to the pathological degree. For local congestion and rubefaction, score was 1; for petechial hemorrhage or erosion, score was respectively 1, for each linear erosion, score was 3. Statistical analysis was performed. Ulcer scores were calculated, significant differences between the groups were compared and the inhibition rates of ulcer were calculated [Inhibition rate of ulcer=(ulcer score of model group−ulcer score of drug administration group)/ulcer score of model group].

[6] = Table 7, model group 19.71 ± 7.18
[7] = Table 6, model group 17.86 ± 8.43

Row | Melting point Day 0 [1] | Spot numbers on TLC Day 0 [1] | Appearance Day 0 [1] | Melting point Day 5 [1] | Spot numbers on TLC Day 5 [1] | Appearance Day 5 [1] | Melting point Day 10 [1] | Spot numbers on TLC Day 10 [1] | Appearance Day 10 [1] | Melting point Day 0 [2] | Spot numbers on TLC Day 0 [2] | hygroscopic rate (%) Day 0 [2] [%] | Appearance Day 0 [2] | Melting point Day 5 [2] | melting point [°C] | Compound | Inhibition rate (%) ([5]; Table 7) | Gastric ulcer score (X ± SD) [5, 6] | anti-gastric ulcer effect in words [5] | Inhibition rate (%) ([5]; Table 6) | Gastric ulcer score (X ± SD) [5, 7] | further results
1 | 123.5-125.5 °C | 1 | blue | 122.0-125.5 °C | 1 | blue | 121.0-126.0 °C | 2 | blue | 123.5-125.5 °C | 1 | 1.14 | blue | 123.5-125.5 °C | 96 to 98 | CCNS(=O)(=O)c1cc(C)c2cc(C(C)C)ccc(C)c1-2 [4h, N-ethyl-3,8-dimethyl-5-isopropyl-1-azulene sulfonamide] |  |  |  |  |  | Spot numbers on TLC Day 5 [2]: 1; hygroscopic rate (%) Day 5 [2]: 2.11%; Appearance Day 5 [2]: blue; Melting point Day 10 [2]: 123.5-125.5 °C; Spot numbers on TLC Day 10 [2]: 1; Appearance Day 10 [2]: blue; light, humidity and heat stability in words [3]: better light, humidity and heat stability than azulene sulfonate sodium; Melting point Day 0 [4]: 123.5-125.5 °C; Spot numbers on TLC Day 0 [4]: 1; Melting point Day 5 [4]: 123.5-125.5 °C; Spot numbers on TLC Day 5 [4]: 1; Appearance Day 5 [4]: blue; Melting point Day 10 [4]: 124.5-125.0 °C; Spot numbers on TLC Day 10 [4]: 1; Appearance Day 10 [4]: blue
2 |  |  |  |  |  |  |  |  |  |  |  |  |  |  |  | Cc1cc(S(=O)(=O)NC(Cc2c[nH]c3ccccc23)C(=O)O)c2c(C)ccc(C(C)C)cc1-2 (stereo not shown) [6c, N-2-(indol-3-methyl)-2-carboxymethylene-3′,8′-dimethyl-5′-isopropyl azulene-1′-sulfonamide] | 55.05 | 8.86 ± 4.81 | stronger and more significant anti-gastric ulcer capability |  |  | 
3 | 134.5-135.0 °C | 1 | purple | 134.0-135.5 °C | 1 | purple | 134.0-135.5 °C | 1 | purple | 134.5-135.0 °C | 1 | 1.17 | purple | 134.5-135.5 °C | 134 to 135 | Cc1cc(S(=O)(=O)Nc2ccc(Cl)cc2)c2c(C)ccc(C(C)C)cc1-2 [4k, N-(4-chlorophenyl)-3,8-dimethyl-5-isopropyl-1-azulene sulfonamide] |  |  |  |  |  | Spot numbers on TLC Day 5 [2]: 1; hygroscopic rate (%) Day 5 [2]: 1.87%; Appearance Day 5 [2]: purple; Melting point Day 10 [2]: 134.5-135.5 °C; Spot numbers on TLC Day 10 [2]: 1; Appearance Day 10 [2]: purple; light, humidity and heat stability in words [3]: better light, humidity and heat stability than azulene sulfonate sodium; Melting point Day 0 [4]: 134.5-135.0 °C; Spot numbers on TLC Day 0 [4]: 1; Melting point Day 5 [4]: 134.0-135.5 °C; Spot numbers on TLC Day 5 [4]: 1; Appearance Day 5 [4]: purple; Melting point Day 10 [4]: 134.0-135.5 °C; Spot numbers on TLC Day 10 [4]: 1; Appearance Day 10 [4]: purple
4 |  |  |  |  |  |  |  |  |  |  |  |  |  |  |  | COc1ccc2[nH]c([S+]([O-])Cc3ncc(C)c(OC)c3C)nc2c1 (stereo not shown) [Omeprazole, reference compound] | 58.25 | 8.23 ± 3.18 |  | 59.41 | 7.25 ± 7.15 | Inhibition rate (%) ([5]; Table 4): 47.23%; Gastri ulcer score (X ± SD) ([5]; Table 4): 6.86 ± 3.77; Inhibition rate (%) ([5]; Table 5): 36.74%; Ulcer score (X ± SD) ([5]; Table 5): 12.86 ± 11.89
5 |  |  |  |  |  |  |  |  |  |  |  |  |  |  | 44 to 46 | CC1=C=C=C(C(C)C)C=C2C(C)=CC(S(=O)(=O)NC(CC(C)C)C(=O)O)=C12 (stereo not shown) [6b, N-2-(2-methylpropyl)-2-carboxymethylene-3′,8′-dimethyl-5′-isopropyl azulene-1′-sulfonamide] | 50.94 | 9.67 ± 4.25 | stronger and more significant anti-gastric ulcer capability |  |  | 
6 |  |  |  |  |  |  |  |  |  |  |  |  |  |  | 94 to 96 | COC(=O)CCNS(=O)(=O)C1=C2C(C)=C=C=C(C(C)C)C=C2C(C)=C1 [5h, N-3-methoxyformylethyl-3′,8′-dimethyl-5′-isopropyl azulene-1′-sulfonamide] |  |  | stronger and more significant anti-gastric ulcer capability | 50.78 | 8.79 ± 4.38 | 
7 |  |  |  |  |  |  |  |  |  |  |  |  |  |  | 69 to 70 | CC1=C=C=C(C(C)C)C=C2C(C)=CC(S(=O)(=O)NCC(=O)N/N=C/c3cccs3)=C12 [8a] | 48.96 | 10.06 ± 5.60 | stronger and more significant anti-gastric ulcer capability |  |  | 
8 |  |  |  |  |  |  |  |  |  |  |  |  |  |  | 178 to 180 | COC(=O)C(Cc1c[nH]c2ccccc12)NS(=O)(=O)C1=C2C(C)=C=C=C(C(C)C)C=C2C(C)=C1 (stereo not shown) [5d, N-2-(indol-3-methyl)-2-methoxyformyl methylene-3′,8′-dimethyl-5′-isopropyl azulene-1′-sulfonamide] |  |  | stronger and more significant anti-gastric ulcer capability | 51.23 | 8.71 ± 4.93 | 

Row | Compound | Melting point Day 0 [1] | Spot numbers on TLC Day 0 [1] | Appearance Day 0 [1] | Melting point Day 5 [1] | Spot numbers on TLC Day 5 [1] | Appearance Day 5 [1] | Melting point Day 10 [1] | Spot numbers on TLC Day 10 [1] | Appearance Day 10 [1] | Melting point Day 0 [2] | Spot numbers on TLC Day 0 [2] | hygroscopic rate (%) Day 0 [2] [%] | Appearance Day 0 [2] | Melting point Day 5 [2] | melting point [°C] | Inhibition rate (%) ([5]; Table 7) | Gastric ulcer score (X ± SD) [5, 6] | anti-gastric ulcer effect in words [5] | Inhibition rate (%) ([5]; Table 6) | Gastric ulcer score (X ± SD) [5, 7] | further results
9 | Cc1cc(S(=O)(=O)[O-])c2c(C)ccc(C(C)C)cc1-2.[Na+] [Azulene sulfonate sodium, 3,8-dimethyl-5-isopropyl azulene-1-sodium sulphonate, reference compound] | 104.0-106.0 °C | 1 | dark blue | 102.5-105.5 °C | 3 | blue | 98.54-103.5 °C | >4 | light | 104.0-106.0 °C | 1 | 2.16 | dark | 100.5-105.5 °C |  | 52.16 | 9.43 ± 5.74 |  | 52.80 | 8.43 ± 5.74 | Inhibition rate (%) ([5]; Table 4): 45.08%; Gastri ulcer score (X ± SD) ([5]; Table 4): 7.14 ± 4.73; Inhibition rate (%) ([5]; Table 5): 32.56%; Ulcer score (X ± SD) ([5]; Table 5): 13.71 ± 10.75; Spot numbers on TLC Day 5 [2]: 3; hygroscopic rate (%) Day 5 [2]: 3.69%; Appearance Day 5 [2]: blue; Melting point Day 10 [2]: 98.5-102.0 °C; Spot numbers on TLC Day 10 [2]: 3; Appearance Day 10 [2]: light; light stability and heat stability in words ([3]; background statement, found by experiments): poor light stability and heat stability; Melting point Day 0 [4]: 104.0-106.0 °C; Spot numbers on TLC Day 0 [4]: 1; Melting point Day 5 [4]: 102.5-104.0 °C; Spot numbers on TLC Day 5 [4]: 2; Appearance Day 5 [4]: blue flake; Melting point Day 10 [4]: 98.5-100.0 °C; Spot numbers on TLC Day 10 [4]: 4; Appearance Day 10 [4]: light blue
